Target: T1, FAP (Homo sapiens, UniProt Q12884)
T1 construct: Target cells: WI-38 cells (typically 1000-20,000 cells per well); endogenous in cells; host or cells: WI-38 cells
T1 sequence (Q12884 1-760): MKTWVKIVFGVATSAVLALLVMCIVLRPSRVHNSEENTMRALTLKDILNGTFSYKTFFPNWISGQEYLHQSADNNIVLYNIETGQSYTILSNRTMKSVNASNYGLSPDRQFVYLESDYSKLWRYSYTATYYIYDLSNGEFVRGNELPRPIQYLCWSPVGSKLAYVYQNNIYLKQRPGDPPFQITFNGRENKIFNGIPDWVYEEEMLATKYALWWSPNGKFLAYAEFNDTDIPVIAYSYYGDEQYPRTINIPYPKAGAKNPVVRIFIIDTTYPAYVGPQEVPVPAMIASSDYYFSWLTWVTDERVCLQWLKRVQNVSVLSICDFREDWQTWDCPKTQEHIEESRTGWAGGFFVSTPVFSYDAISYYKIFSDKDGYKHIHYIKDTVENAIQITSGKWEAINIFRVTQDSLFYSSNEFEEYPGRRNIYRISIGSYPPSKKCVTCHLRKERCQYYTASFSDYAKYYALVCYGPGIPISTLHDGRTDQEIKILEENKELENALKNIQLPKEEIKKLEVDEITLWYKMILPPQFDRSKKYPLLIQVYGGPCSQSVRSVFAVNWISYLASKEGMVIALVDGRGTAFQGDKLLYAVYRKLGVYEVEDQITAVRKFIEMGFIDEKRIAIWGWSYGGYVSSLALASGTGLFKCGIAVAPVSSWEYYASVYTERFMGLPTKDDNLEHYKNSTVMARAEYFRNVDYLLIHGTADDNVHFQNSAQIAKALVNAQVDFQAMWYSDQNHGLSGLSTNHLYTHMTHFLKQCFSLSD
Test: Antibody dependent cellular cytotoxicity (ADCC) reporter assay
Assay type: cell-based
Details: WI-38 target cells; Jurkat FcγRIIIa NFAT-luciferase reporter cells; with anti-cotinine antibody (SEQ ID NO: 11/12); 12-18 hours; average if more than one run; read-out: ADCC Reporter Assay pEC50 (converted)
Description: An antibody dependent cellular cytotoxicity (ADCC) reporter assay was conducted using the following four assay components: (i) ARM compound of Formula (I) targeting FAP (concentrations ranging from […]); (ii) anti-cotinine antibody having a heavy chain sequence of SEQ ID NO: 11 and a light chain sequence of SEQ ID NO: 12 (rabbit variable region with human IgG1 Fc domain containing DE mutation (S239D/I332E)) (concentrations ranging from 0.01 μg/mL 200 μg/mL); (iii) Target cells: WI-38 cells (typically 1000-20,000 cells per well); and (iv) Reporter cells—Jurkat cells engineered to express FcγRIIIa with a reporter gene luciferase under the control of the NFAT promoter (typically 3000-75,000 cells per well). Reagents were combined in final volume of 20 μL in 384—well tissue culture treated plate. All four assay components were incubated together for about 12-18 hours. Thereafter, BioGlo Detection reagent (Promega) was added to the wells to lyse the cells and provide a substrate for the luciferase reporter protein.
Luminescence signal was measured on a microplate reader capable of measuring luminescence and signal:background was calculated by dividing the signal of a test well by the signal obtained when no compound of formula (I) was included in the assay. EC50 calculations were done using Graphpad Prism Software, specifically a nonlinear regression curve fit (Y=Bottom+(Top−Bottom)/(1+10^((Log EC50−X)*HillSlope))).
ARMs compounds of Formula (I) were tested for ADCC activity in the above assay in one or more experimental runs and the results are shown in Table 3 below. Potency of the compounds of Formula (I) is reported as a pEC50 values. The pEC50 value is the negative log of the EC50 value, wherein the EC50 value is half maximal effective concentration measured in molar (M). For compounds tested in more than one experimental run, the pEC50 value is reported as an average.

| Structure (SMILES) | EC50 |
| --- | --- |
| CN1C(=O)C[C@H](C(=O)NCCOCCOCCOCCOCCOCCOCCOCCOCCOCCOCCOCCOCCOCCOCCOCCNC(=O)COc2ccc3c(C(=O)NCC(=O)N4CC(F)(F)C[C@H]4C#N)ccnc3c2)[C@H]1c1cccnc1 [Example 11, N-(2-((S)-2-cyano-4,4-difluoropyrrolidin-1-yl)-2-oxoethyl)-7-((1-((2S,3S)-1-methyl-5-oxo-2-(pyridin-3-yl)pyrrolidin-3-yl)-1,51-dioxo-5,8,11,14,17,20,23,26,29,32,35,38,41,44,47-pentadecaoxa-2,50-diazadopentacontan-52-yl)oxy)quinoline-4-carboxamide] | > 1000 nM |
| CN1C(=O)C[C@H](C(=O)NCCOCCOCCOCCOCCOCCOCCOCCOCCOCCOCCOCCOCCOCCOCCOCCOCCOCCOCCOCCOCCOCCOCCOCCNC(=O)COc2ccc3c(C(=O)NCC(=O)N4CCC[C@H]4C#N)ccnc3c2)[C@H]1c1cccnc1 [Example 12, N-(2-((S)-2-cyanopyrrolidin-1-yl)-2-oxoethyl)-7-((1-((2S,3S)-1-methyl-5-oxo-2-(pyridin-3-yl)pyrrolidin-3-yl)-1,75-dioxo-5,8,11,14,17,20,23,26,29,32,35,38,41,44,47,50,53,56,59,62,65,68,71-tricosaoxa-2,74-diazahexaheptacontan-76-yl)oxy)quinoline-4-carboxamide] | 1 nM |
| CN1C(=O)C[C@H](C(=O)NCCOCCOCCOCCOCCOCCOCCOCCOCCOCCOCCOCCOCCOCCOCCOCCOCCOCCOCCOCCOCCOCCOCCOCCNC(=O)COc2ccc3c(C(=O)NCC(=O)N4CC(F)(F)C[C@H]4C#N)ccnc3c2)[C@H]1c1cccnc1 [Example 13, N-(2-((S)-2-cyano-4,4-difluoropyrrolidin-1-yl)-2-oxoethyl)-7-((1-((2S,3S)-1-methyl-5-oxo-2-(pyridin-3-yl)pyrrolidin-3-yl)-1,75-dioxo-5,8,11,14,17,20,23,26,29,32,35,38,41,44,47,50,53,56,59,62,65,68,71-tricosaoxa-2,74-diazahexaheptacontan-76-yl)oxy)quinoline-4-carboxamide] | 1 nM |

Source: patent publication US20250064947A1, “CYTOTOXICITY TARGETING CHIMERAS FOR FIBROBLAST ACTIVATION PROTEIN-EXPRESSING CELLS” (Glaxosmithkline Intellectual Property Development Limited, priority 2022, published 2025)
